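Tested at 5 concentrations; 48 h exposure; 96-well plates; endpoints linearly interpolated, else capped at highest concentration. GI50: concentration for 50% inhibition of growth.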 The source made the active and inactive calls. Rule as the data show it: active = GI50 up to about 1.1 µM and inactive = higher.
Key:
Assay in all cases: NCI anticancer screen, dose series, 48 h
RXF 393 = tested on: RXF 393
HT-29 = tested on: HT-29
RPMI-8226 = tested on: RPMI-8226
PC-3 = tested on: PC-3
SF-539 = tested on: SF-539
OVCAR-4 = tested on: OVCAR-4
SF-268 = tested on: SF-268
A498 = tested on: A498
SNB-19 = tested on: SNB-19
SK-OV-3 = tested on: SK-OV-3
OVCAR-8 = tested on: OVCAR-8
SK-MEL-5 = tested on: SK-MEL-5
TK-10 = tested on: TK-10
OVCAR-3 = tested on: OVCAR-3
IGROV-1 = tested on: IGROV-1
MDA-MB-435 = tested on: MDA-MB-435
M14 = tested on: M14
KM12 = tested on: KM12
SR = tested on: SR
CCRF-CEM = tested on: CCRF-CEM

For `N#C/C(=C\NC(=S)c1ccncc1)c1nc2ccccc2s1`, which GI50 (RXF 393) is on record?
The GI50 was > 100 µM (inactive).

And the GI50 (HT-29)?
Its GI50 is > 100 µM (inactive).

And the GI50 (RPMI-8226)?
The GI50 was > 100 µM (inactive).

And the GI50 (PC-3)?
The GI50 was > 100 µM (inactive).

And the GI50 (SF-539)?
The GI50 was > 100 µM (inactive).

And the GI50 (OVCAR-4)?
The GI50 was > 100 µM (inactive).

What about the GI50 (SF-268) of the same molecule?
Its GI50 is > 100 µM (inactive).

And the GI50 (A498)?
The GI50 was > 100 µM (inactive).

What about the GI50 (SNB-19) of the same molecule?
Its GI50 is > 100 µM (inactive).

And the GI50 (SK-OV-3)?
The GI50 was > 100 µM (inactive).

And the GI50 (OVCAR-8)?
The GI50 was > 100 µM (inactive).

What about the GI50 (SK-MEL-5) of the same molecule?
The GI50 was > 100 µM (inactive).

What about the GI50 (TK-10) of the same molecule?
The GI50 was 65.2 µM (inactive).

What about the GI50 (OVCAR-3) of the same molecule?
Its GI50 is 43.4 µM (inactive).

What about the GI50 (IGROV-1) of the same molecule?
The GI50 was > 100 µM (inactive).

What about the GI50 (MDA-MB-435) of the same molecule?
Its GI50 is > 100 µM (inactive).

And the GI50 (M14)?
Its GI50 is > 100 µM (inactive).

And the GI50 (KM12)?
The GI50 was > 100 µM (inactive).

And the GI50 (SR)?
Its GI50 is 74.6 µM (inactive).

Which results are given for `CCC(c1ccc2cc(O)ccc2c1)C(C)(C)C(=O)O` (configuration not stated)?
GI50 (RXF 393): > 100 µM (inactive); GI50 (HT-29): > 100 µM (inactive); GI50 (RPMI-8226): > 100 µM (inactive); GI50 (PC-3): > 100 µM (inactive); GI50 (SF-539): > 100 µM (inactive); GI50 (OVCAR-4): > 100 µM (inactive); GI50 (SF-268): > 100 µM (inactive); GI50 (A498): > 100 µM (inactive); GI50 (SNB-19): > 100 µM (inactive); GI50 (SK-OV-3): > 100 µM (inactive); GI50 (OVCAR-8): > 100 µM (inactive); GI50 (SK-MEL-5): > 100 µM (inactive); GI50 (TK-10): > 100 µM (inactive); GI50 (OVCAR-3): > 100 µM (inactive); GI50 (IGROV-1): > 100 µM (inactive); GI50 (MDA-MB-435): > 100 µM (inactive); GI50 (M14): > 100 µM (inactive); GI50 (KM12): > 100 µM (inactive); GI50 (SR): > 100 µM (inactive)

Which results are given for `O=C1C(Cl)=C(NCCF)C(=O)c2ncccc21`?
GI50 (RXF 393): 1.84 µM (inactive); GI50 (HT-29): 2.97 µM (inactive); GI50 (RPMI-8226): 7.08 µM (inactive); GI50 (PC-3): 1.58 µM (inactive); GI50 (SF-539): 1.81 µM (inactive); GI50 (SF-268): 2.03 µM (inactive); GI50 (A498): 4.12 µM (inactive); GI50 (SNB-19): 1.64 µM (inactive); GI50 (SK-OV-3): 2.29 µM (inactive); GI50 (CCRF-CEM): 0.235 µM (active); GI50 (OVCAR-8): 2.03 µM (inactive); GI50 (SK-MEL-5): 1 µM (active); GI50 (TK-10): 2.13 µM (inactive); GI50 (OVCAR-3): 2.03 µM (inactive); GI50 (IGROV-1): 1.95 µM (inactive); GI50 (MDA-MB-435): 0.212 µM (active); GI50 (M14): 1.61 µM (inactive); GI50 (KM12): 1.93 µM (inactive); GI50 (SR): 9.38 µM (inactive)

With `CN(C)c1ccc(/C=C(\NC(=O)c2ccccc2)C(=O)NCC(=O)O)cc1` as the molecule, how does the GI50 (RXF 393) read?
The GI50 was > 100 µM (inactive).

And the GI50 (HT-29)?
The GI50 was > 100 µM (inactive).

And the GI50 (RPMI-8226)?
The GI50 was > 100 µM (inactive).

And the GI50 (PC-3)?
Its GI50 is > 100 µM (inactive).

What about the GI50 (SF-539) of the same molecule?
Its GI50 is > 100 µM (inactive).

And the GI50 (SF-268)?
The GI50 was > 100 µM (inactive).

And the GI50 (A498)?
The GI50 was > 100 µM (inactive).

What about the GI50 (SNB-19) of the same molecule?
The GI50 was > 100 µM (inactive).

And the GI50 (SK-OV-3)?
Its GI50 is > 100 µM (inactive).

What about the GI50 (CCRF-CEM) of the same molecule?
The GI50 was > 100 µM (inactive).

And the GI50 (OVCAR-8)?
The GI50 was > 100 µM (inactive).

And the GI50 (SK-MEL-5)?
The GI50 was > 100 µM (inactive).

What about the GI50 (OVCAR-3) of the same molecule?
Its GI50 is > 100 µM (inactive).

And the GI50 (IGROV-1)?
Its GI50 is > 100 µM (inactive).

And the GI50 (MDA-MB-435)?
The GI50 was > 100 µM (inactive).

What about the GI50 (M14) of the same molecule?
The GI50 was > 100 µM (inactive).

And the GI50 (KM12)?
Its GI50 is > 100 µM (inactive).

And the GI50 (SR)?
Its GI50 is > 100 µM (inactive).

What does the source list for `O=C1[C@@H]2Cc3c([nH]c4ccccc34)C(C3CCCCC3)N2C(=O)[C@@H]2CCCN12` (some centres not stated)?
GI50 (RXF 393): 29.9 µM (inactive); GI50 (HT-29): 28.5 µM (inactive); GI50 (RPMI-8226): 21.3 µM (inactive); GI50 (PC-3): 22.3 µM (inactive); GI50 (OVCAR-4): 35.2 µM (inactive); GI50 (SF-268): 33.5 µM (inactive); GI50 (A498): 37.8 µM (inactive); GI50 (SNB-19): 39.9 µM (inactive); GI50 (SK-OV-3): 46.9 µM (inactive); GI50 (OVCAR-8): 36.7 µM (inactive); GI50 (SK-MEL-5): 17.7 µM (inactive); GI50 (TK-10): 35.6 µM (inactive); GI50 (OVCAR-3): 20.4 µM (inactive); GI50 (IGROV-1): 29.6 µM (inactive); GI50 (MDA-MB-435): 34.2 µM (inactive); GI50 (M14): 37.8 µM (inactive); GI50 (KM12): 23.3 µM (inactive); GI50 (SR): 19.9 µM (inactive)

For `C[C@@H]1[C@H](C)N1CC(O)Cn1ccnc1[N+](=O)[O-]` (some centres not stated), which GI50 (RXF 393) is on record?
The GI50 was > 100 µM (inactive).

And the GI50 (HT-29)?
The GI50 was > 100 µM (inactive).

And the GI50 (PC-3)?
The GI50 was > 100 µM (inactive).

And the GI50 (SF-539)?
The GI50 was > 100 µM (inactive).

And the GI50 (OVCAR-4)?
The GI50 was > 100 µM (inactive).

What about the GI50 (SF-268) of the same molecule?
The GI50 was > 100 µM (inactive).

And the GI50 (A498)?
Its GI50 is > 100 µM (inactive).

What about the GI50 (SNB-19) of the same molecule?
The GI50 was > 100 µM (inactive).

And the GI50 (SK-OV-3)?
The GI50 was > 100 µM (inactive).

And the GI50 (CCRF-CEM)?
The GI50 was > 100 µM (inactive).

And the GI50 (OVCAR-8)?
The GI50 was > 100 µM (inactive).

What about the GI50 (SK-MEL-5) of the same molecule?
Its GI50 is > 100 µM (inactive).

What about the GI50 (TK-10) of the same molecule?
Its GI50 is > 100 µM (inactive).

And the GI50 (OVCAR-3)?
Its GI50 is > 100 µM (inactive).

And the GI50 (IGROV-1)?
Its GI50 is > 100 µM (inactive).

What about the GI50 (MDA-MB-435) of the same molecule?
Its GI50 is > 100 µM (inactive).

And the GI50 (M14)?
Its GI50 is > 100 µM (inactive).

And the GI50 (KM12)?
Its GI50 is > 100 µM (inactive).

And the GI50 (SR)?
The GI50 was > 100 µM (inactive).

Source: ChEMBL document CHEMBL1201862, “PubChem BioAssay data set” (2004)
